Test results reported in US9364523B2 (priority 2014, dated 2016).
Residues, ends and D or L forms follow the SMILES beside them. *: point of attachment. Cbz = O=C(OCc1ccccc1)*

Experiments:
[1] = system: transfected COS cells; format: cell-based
[2] = system: transfected HEK cells; format: cell-based

For CC(C)C[C@@H](C=O)NC(=O)[C@H](CC(C)C)NC(=O)[C@H](CC(C)C)NC(=O)OCc1ccccc1 [MG132] (Cbz-Leu-Leu-Leu-aldehyde), the “MTI-PAA expression in the presence of proteasome inhibitor” value [1] was “enhanced” and the “MTI-PAA levels in the presence of proteasome inhibitor” value [2] was “increased levels of MTI-PAA”.
